Measurements taken from US5384412A, “Saccharide intermediates in the formation of the calicheamicin and esperamicin oligosaccharides” (priority 1992, dated 1995).
Where two headings read alike, the source gives them in different places.

Assays:
[1] = system: DNA; details: Zein et al., Science, 244:697 (1989), cited from earlier work
[2] = system: duplex DNA; details: cited from earlier work
[3] = system: 93 base-pair Sal I - Sph I double-stranded DNA fragment of pBR322; assay: DNase I footprinting of oligosaccharides on labeled DNA fragment; format: binding; details: for DNA binding selectivity from footprinting: footprinting studies, O-methyl glycoside; for protection against DNase I cleavage (footprinting): pre-incubated with DNA at 37° C. for 30 minutes, autoradiography
Excerpt: Footprinting studies the O-methyl glycosides of saccharide Compounds 167a, 100, its C-4 epimer (100a) and a similar compound lacking the iodo group in Ring C, 100b, shown below, were designed to probe these questions.
The oligosaccharides 167a, 100, 100a, and 100b were obtained by chemical synthesis following procedures similar to those discussed before. The 93 base-pair Sal I - Sph I double-stranded DNA fragment of pBR322 was obtained enzymatically and was [5'-^32 P]-labeled on one strand. pBR322 DNA was cleaved at the unique Sal I site, dephosphorylated using calf intestine phosphatase, 5'-^32 P]-phosphorylated using T4 polynucleotide kinase and [g-^32 P ATP (4.5 ^m Ci/pmol), and cleaved again at the unique Sph I site. These precursors generated a 93 base-pair double-stranded fragment, [5'-^32 P]-labeled at the Sal I end, which was purified by gel electrophoresis in a nondenaturing 10 percent polyacrylamide gel and subsequent column chromatography on Sephadex G-25. The oligosaccharides were pre-incubated with the DNA fragment at 37° C. for 30 minutes and DNase I was added to cleave the DNA and generate footprinting patterns by autoradiography.
The degree of protection against DNase I digestion offered by both the natural and unnatural stereoisomers was determined by comparing the amount of radioactivity in adjacent lanes along the electrophoresis gel. The protected regions coincided only roughly with calicheamicin γ1^I recognition sequences [(a) Zein et al., Science, 240:1198 (1988); (b) Zein et al., Science, 244:697 (1989); (c) Ding et al., J. Am. Chem. Soc., 113:6617 (1991)], Schreiber [Hawley et al., Proc. Natl. Acad. Sci. U.S.A., 86:1105 (1989)] and observed calicheamicin γ1^I cleavage sites.

Row | Molecule | sequence specificity of DNA cleaving [1] | protection against DNase I cleavage (footprinting) [3] | further results
1 | CCN[C@H]1CO[C@@H](O[C@H]2[C@H](O[C@H]3C#CC=CC#C[C@@]4(O)CC(=O)C(NC(=O)OC)=C3/C4=C\CSSSC)O[C@H](C)[C@@H](NO[C@H]3C[C@H](O)[C@H](SC(=O)c4c(C)c(I)c(O[C@@H]5O[C@@H](C)[C@H](O)[C@@H](OC)[C@H]5O)c(OC)c4OC)[C@@H](C)O3)[C@@H]2O)C[C@@H]1OC (stereo in doubt) [calicheamicin γ1^I, reference compound] | double DNA strand cuts at specific sequences | – | DNA binding site ([2]; double stranded DNA minor groove): anchors itself on the 5' side of a TCCT sequence
2 | CCN[C@H]1CO[C@@H](O[C@H]2[C@H](OC)O[C@H](C)[C@@H](NO[C@H]3C[C@H](O)[C@H](SC(=O)c4c(C)c(I)c(O[C@@H]5O[C@@H](C)[C@H](O)[C@@H](OC)[C@H]5O)c(OC)c4OC)[C@@H](C)O3)[C@@H]2O)C[C@@H]1OC [Compound 100] | – | concentration-dependent protection, presumably due to binding, in the region of three calicheamicin γ1^I binding sites: CTCT, TCCT and AGGA | interaction with duplex DNA ([2]; previous studies by the Ellestad, Schreiber, Kahne and Danishefsky groups): selective interactions of the calicheamicin γ1^I oligosaccharide with duplex DNA along specific sequences within the minor groove; DNA binding selectivity from footprinting [3]: selective binding of oligosaccharide Compound 100 with specific base sequences of DNA; DNA binding selectivity from footprinting ([3]; listed as calicheamicin oligosaccharide glycoside): binds specifically to DNA, the preferred saccharide binding sites do not coincide precisely with those observed for intact calicheamicin
3 | CCN[C@H]1CO[C@@H](O[C@H]2[C@H](OC)O[C@H](C)[C@H](NO[C@H]3C[C@H](O)[C@H](SC(=O)c4c(C)c(I)c(O[C@@H]5O[C@@H](C)[C@H](O)[C@@H](OC)[C@H]5O)c(OC)c4OC)[C@@H](C)O3)[C@@H]2O)C[C@@H]1OC [Compound 100a] | – | no protection at the same concentrations | –
4 | CCN[C@H]1CO[C@@H](O[C@H]2[C@H](OC)O[C@H](C)[C@@H](NO[C@H]3C[C@H](O)[C@H](SC(=O)c4c(C)cc(O[C@@H]5O[C@@H](C)[C@H](O)[C@@H](OC)[C@H]5O)c(OC)c4OC)[C@@H](C)O3)[C@@H]2O)C[C@@H]1OC [Compound 100b] | – | lack of protection under the same conditions | –
5 | esperamicin | no strong sequence specificity in DNA cleaving | – | sequence specificity of DNA cleaving ([1]; listed as Esperamicins): less sequence specific
